Measurements from ChEMBL document CHEMBL1212936, “Discovery of 2-[1-(4-chlorophenyl)cyclopropyl]-3-hydroxy-8-(trifluoromethyl)quinoline-4-carboxylic acid (PSI-421), a P-selectin inhibitor with improved pharmacokinetic properties and oral efficacy in models of vascular injury” (J Med Chem, 2010).
≈ marks a conversion by molar mass, not a printed value.

Key:
[1] = molecular target: T1, P-selectin glycoprotein ligand 1 (Homo sapiens, UniProt Q14242); assay: Inhibition of recombinant PSGL-1 by surface plasmon resonance assay
T1 sequence (Q14242 whole entry): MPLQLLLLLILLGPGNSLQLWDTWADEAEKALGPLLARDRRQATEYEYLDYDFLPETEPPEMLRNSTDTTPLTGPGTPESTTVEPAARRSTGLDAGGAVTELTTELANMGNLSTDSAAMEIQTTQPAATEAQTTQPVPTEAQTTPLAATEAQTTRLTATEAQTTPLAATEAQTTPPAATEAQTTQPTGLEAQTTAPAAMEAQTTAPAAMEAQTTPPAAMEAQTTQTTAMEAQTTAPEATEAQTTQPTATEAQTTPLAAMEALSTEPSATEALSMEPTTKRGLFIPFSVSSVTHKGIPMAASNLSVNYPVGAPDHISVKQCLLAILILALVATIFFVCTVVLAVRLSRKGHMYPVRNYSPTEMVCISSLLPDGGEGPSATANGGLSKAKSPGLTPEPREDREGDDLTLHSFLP

[2] = Aqueous solubility of the compound at pH 6.6; format: physicochemical; conditions: aqueous solution
[3] = molecular target: T2, P-selectin glycoprotein ligand 1 (Homo sapiens) (UniProt Q14242); assay: Inhibition of recombinant PSGL-1 at 250 uM by surface plasmon resonance assay
T2 sequence (whole entry): T1 sequence (Q14242 whole entry)

[4] = Clearance in Sprague-Dawley rat at 3 mg/kg, iv and 10 mg/kg, po; format: ADME, organism-based; conditions: in vivo
Rattus norvegicus = assay: Dose normalized AUC in Sprague-Dawley rat measured per mg of plasma at 3 mg/kg, iv and 10 mg/kg, po; format: ADME, organism-based; conditions: in vivo
[5] = Oral bioavailability in Sprague-Dawley rat at 10 mg/kg; format: ADME, organism-based; conditions: in vivo
CYP2C9 = CYP2C9 (Homo sapiens, UniProt P11712); assay: Inhibition of CYP2C9 at 3 uM; format: ADME
Mus musculus = assay: Reduction of leukocytes rolling flux in acute intravital microscopy model of C57B6 mouse cremasteric postcapillary venules at 50 mg/kg, po after 35 mins relative to control; format: functional; parameters: scale not given: the % may be the effect or the level left

Sequence of CYP2C9 (P11712 whole entry): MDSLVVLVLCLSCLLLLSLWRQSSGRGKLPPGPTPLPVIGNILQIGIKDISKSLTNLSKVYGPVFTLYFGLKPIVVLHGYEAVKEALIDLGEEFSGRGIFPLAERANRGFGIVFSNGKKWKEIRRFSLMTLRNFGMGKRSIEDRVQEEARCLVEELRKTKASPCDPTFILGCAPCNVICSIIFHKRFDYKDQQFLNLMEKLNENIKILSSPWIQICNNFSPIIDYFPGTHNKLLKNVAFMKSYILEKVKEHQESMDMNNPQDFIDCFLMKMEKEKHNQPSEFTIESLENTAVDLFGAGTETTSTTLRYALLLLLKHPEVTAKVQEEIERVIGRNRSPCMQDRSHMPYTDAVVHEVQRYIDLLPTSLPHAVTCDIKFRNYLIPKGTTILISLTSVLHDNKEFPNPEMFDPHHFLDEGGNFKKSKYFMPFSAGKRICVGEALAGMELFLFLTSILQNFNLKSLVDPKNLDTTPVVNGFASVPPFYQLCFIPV

| Compound | solubility [2] [µg/mL] | inhibition [3] [%] | also measured |
| --- | --- | --- | --- |
| CC(=O)N[C@H]1[C@H]([C@H](O)[C@H](O)CO)O[C@@](O[C@H]2[C@@H](O)[C@@H](CO)O[C@@H](O[C@@H]([C@H](O[C@@H]3O[C@@H](C)[C@@H](O)[C@@H](O)[C@@H]3O)[C@H](C=O)NC(C)=O)[C@H](O)CO)[C@@H]2O)(C(=O)O)C[C@@H]1O [SIALYL LEWIS X] |  |  | IC50 [1]: 15000 µM |
| O=C(O)c1c(O)c(C2(c3cccc(Cl)c3)CC2)nc2c(C(F)(F)F)cccc12 | 300 (≈ 736 µM) | 66 |  |
| O=C(O)c1c(O)c(C2Cc3ccccc3C2)nc2c(C(F)(F)F)cccc12 | 700 (≈ 1880 µM) | 35 | clearance [4]: 28 mL/min/kg; AUC (Rattus norvegicus): 340 ng·h/mL; bioavailability [5]: 49% |
| Cc1cc(C)c2nc(C3(c4ccc(F)cc4)CC3)c(O)c(C(=O)O)c2c1 |  | < 10 | inhibition at 3 µM (CYP2C9): 55% |
| CCc1cccc2c(C(=O)O)c(O)c(C3(c4ccc(C(F)(F)F)cc4)CC3)nc12 | 250 (≈ 623 µM) |  | clearance [4]: 9.4 mL/min/kg; AUC (Rattus norvegicus): 2428 ng·h/mL; bioavailability [5]: 100% |
| O=C(O)c1c(O)c(C2(c3ccccc3)CC2)nc2c3c(ccc12)CCCC3 |  |  | clearance [4]: 3.9 mL/min/kg; AUC (Rattus norvegicus): 1925 ng·h/mL; IC50 [1]: 250 µM; bioavailability [5]: 45% |
| Cc1cc(C(F)(F)F)cc2c(C(=O)O)c(O)c(C3(c4ccc(Cl)cc4)CC3)nc12 |  | 40 | inhibition at 3 µM (CYP2C9): 42% |
| Cc1cc(C)c2nc(C3(c4ccc(Cl)cc4)CC3)c(O)c(C(=O)O)c2c1 |  | 47 | inhibition at 3 µM (CYP2C9): 17% |
| CCc1cc(C(F)(F)F)c2nc(C3(c4ccccc4)CC3)c(O)c(C(=O)O)c2c1 |  | 40 | inhibition at 3 µM (CYP2C9): 86% |
| Cc1ccc(C2(c3nc4c(C)cc(C)cc4c(C(=O)O)c3O)CC2)cc1 |  | 11 | inhibition at 3 µM (CYP2C9): 55% |
| O=C(O)c1c(O)c(C2(c3cccs3)CC2)nc2c(C(F)(F)F)cccc12 |  | 15 |  |
| O=C(O)c1c(O)c(C2(c3ccc(OC(F)(F)F)cc3)CC2)nc2c(C(F)(F)F)cccc12 |  | 29 |  |
| O=C(O)c1c(O)c(C2(c3ccc(F)cc3)CC2)nc2c(C(F)(F)F)cccc12 | 2900 (≈ 7410 µM) | 56 | clearance [4]: 0.5 mL/min/kg; AUC (Rattus norvegicus): 14282 ng·h/mL; bioavailability [5]: 39% |
| O=C(O)c1c(O)c(Cc2ccc(Cl)cc2)nc2c(C(F)(F)F)cccc12 | 440 (≈ 1150 µM) | 40 |  |
| COc1ccc(C2(c3nc4c(C(F)(F)F)cccc4c(C(=O)O)c3O)CC2)cc1 |  | 26 |  |
| CCc1cccc2c(C(=O)O)c(O)c(C3(c4ccc(Cl)cc4)CC3)nc12 | 140 (≈ 381 µM) |  | clearance [4]: 2.4 mL/min/kg; AUC (Rattus norvegicus): 13986 ng·h/mL; bioavailability [5]: 100% |
| CC(Cc1nc2c(C(F)(F)F)cccc2c(C(=O)O)c1O)c1ccccc1 (centres undefined) | 680 (≈ 1810 µM) | 46 |  |
| CC(C)c1cccc2c(C(=O)O)c(O)c(C3(c4ccc(F)cc4)CC3)nc12 | 2500 (≈ 6840 µM) |  | clearance [4]: 8.7 mL/min/kg; AUC (Rattus norvegicus): 1263 ng·h/mL; bioavailability [5]: 65% |
| O=C(O)c1c(O)c(Cc2ccccc2)nc2c3c(ccc12)CCCC3 |  |  | IC50 [1]: 413 µM |
| CCc1cc(C(F)(F)F)cc2c(C(=O)O)c(O)c(C3(c4ccc(Cl)cc4)CC3)nc12 |  | < 10 | inhibition at 3 µM (CYP2C9): 43% |
| Cc1cc(C(F)(F)F)c2nc(C3(c4ccccc4)CC3)c(O)c(C(=O)O)c2c1 |  | 40 | inhibition at 3 µM (CYP2C9): 87% |
| CC(C)C(c1ccc(Cl)cc1)c1nc2c(C(F)(F)F)cccc2c(C(=O)O)c1O (centres undefined) |  | < 10 |  |
| CC(c1ccccc1)c1nc2c(C(F)(F)F)cccc2c(C(=O)O)c1O (centres undefined) | 1550 (≈ 4290 µM) | 50 |  |

| Compound | solubility [2] [µg/mL] | inhibition [3] [%] | also measured |
| --- | --- | --- | --- |
| CCC(c1ccccc1)c1nc2c(C(F)(F)F)cccc2c(C(=O)O)c1O (centres undefined) | 600 (≈ 1600 µM) | 55 |  |
| CC(Cc1ccccc1)c1nc2c(C(F)(F)F)cccc2c(C(=O)O)c1O (centres undefined) | 1550 (≈ 4130 µM) | 49 |  |
| O=C(O)c1c(O)c(C2(c3ccccc3)CC2)nc2c(C(O)(C(F)(F)F)C(F)(F)F)cccc12 | 1500 (≈ 3180 µM) |  | clearance [4]: 1 mL/min/kg; AUC (Rattus norvegicus): 5035 ng·h/mL; bioavailability [5]: 44%; Activity (Mus musculus): 60% |
| O=C(O)c1c(O)c(C2(c3ccsc3)CC2)nc2c(C(F)(F)F)cccc12 |  | 7 |  |
| O=C(O)c1c(O)c(C2(c3ccc(C(F)(F)F)cc3)CC2)nc2c(C(F)(F)F)cccc12 | 200 (≈ 453 µM) | 47 | clearance [4]: 0.4 mL/min/kg; AUC (Rattus norvegicus): 13800 ng·h/mL; bioavailability [5]: 31% |
| O=C(O)c1c(O)c(C2(c3ccc(Cl)cc3)CC2)nc2c(C(F)(F)F)cc(Cl)cc12 |  | < 10 | inhibition at 3 µM (CYP2C9): 72% |
| O=C(O)c1c(O)c(C2(c3cccc(C(F)(F)F)c3)CC2)nc2c(C(F)(F)F)cccc12 | 1000 (≈ 2270 µM) | 46 |  |
| Cc1ccc2c(C(=O)O)c(O)c(C3(c4ccc(Cl)cc4)CC3)nc2c1C | 190 (≈ 517 µM) |  | clearance [4]: 7 mL/min/kg; AUC (Rattus norvegicus): 1735 ng·h/mL; bioavailability [5]: 75% |
| CC(C)c1cccc2c(C(=O)O)c(O)c(C3(c4ccccc4)CC3)nc12 | 370 (≈ 1070 µM) |  | clearance [4]: 9 mL/min/kg; AUC (Rattus norvegicus): 2663 ng·h/mL; bioavailability [5]: 100% |
| O=C(O)c1c(O)c(C2(c3ccc(Cl)cc3)CC2)nc2c(C(F)(F)F)cc(Br)cc12 |  | < 10 | inhibition at 3 µM (CYP2C9): 65% |
| Cc1cc(C)c2nc(C3(c4ccccc4)CC3)c(O)c(C(=O)O)c2c1 |  | 20 | inhibition at 3 µM (CYP2C9): 54% |
| Cc1cc(C(F)(F)F)c2nc(C3(c4ccc(Cl)cc4)CC3)c(O)c(C(=O)O)c2c1 |  | 65 | inhibition at 3 µM (CYP2C9): 72% |
| O=C(O)c1c(O)c(C2(c3ccccc3)CC2)nc2c(C(F)(F)F)cccc12 | 2100 (≈ 5630 µM) | 44 |  |
| O=C(O)c1c(O)c(C2(c3ccccc3Cl)CC2)nc2c(C(F)(F)F)cccc12 | 760 (≈ 1860 µM) | 57 | clearance [4]: 2.4 mL/min/kg; AUC (Rattus norvegicus): 1336 ng·h/mL; bioavailability [5]: 19% |
| O=C(O)c1c(O)c(C2(c3ccc(Cl)cc3)CCC2)nc2c(C(F)(F)F)cccc12 |  | 0 |  |
| O=C(O)c1c(O)c(C2(c3ccc(Br)cc3)CC2)nc2c(C(F)(F)F)cccc12 | 420 (≈ 929 µM) | 64 |  |
| CCc1cc(C(F)(F)F)c2nc(C3(c4ccc(Cl)cc4)CC3)c(O)c(C(=O)O)c2c1 |  | < 10 | inhibition at 3 µM (CYP2C9): 81% |
| CC(c1ccccc1)c1nc2c3c(ccc2c(C(=O)O)c1O)CCCC3 (centres undefined) |  |  | clearance [4]: 9 mL/min/kg; AUC (Rattus norvegicus): 1259 ng·h/mL; IC50 [1]: 175 µM; bioavailability [5]: 66% |
| Cc1ccc(C2(c3nc4c(C)c(C)ccc4c(C(=O)O)c3O)CC2)cc1 |  | 24 | inhibition at 3 µM (CYP2C9): 47% |
| CC(C)C(c1ccccc1)c1nc2c(C(F)(F)F)cccc2c(C(=O)O)c1O (centres undefined) | 30 (≈ 77 µM) | 58 |  |
| O=C(O)c1c(O)c(C2Cc3ccccc32)nc2c(C(F)(F)F)cccc12 (centres undefined) | 800 (≈ 2230 µM) | 45 |  |
| CC(C)(c1ccccc1)c1nc2c(C(F)(F)F)cccc2c(C(=O)O)c1O | 2810 (≈ 7490 µM) | 59 | clearance [4]: 3.7 mL/min/kg; AUC (Rattus norvegicus): 1472 ng·h/mL; bioavailability [5]: 93% |
